Experimental findings from publication PMC4961458 (eLife, 2016) are described below.

The test system of data set [1] is WHIM20 tumors. It is filed as in vivo, mice. The settings on record: no E2 pellets; GDC-0810 100 mg/kg/day; tamoxifen 60 mg/kg/day; fulvestrant 50 mg/kg days 1, 3 and 7, 25 mg/kg weekly thereafter; 35 days. The text has this:
Figure 8. […] (B) Gene expression analysis of WHIM20 tumors after 4 days of dosing, harvested 8 hr after the final dose. […] (E) WHIM20 tumors were implanted in mice without supplemental 17β-estradiol pellets.
The WHIM20 patient derived xenograft model (WHIM20) was established via direct implantation of metastatic tumor material into immune compromised mice at Washington University in St. Louis ([Li et al., 2013]).
Tumors were established from fragments obtained from Washington University by subcutaneous implantation via 10G trocar into the right flank of 6–7 week old female NOD.CB17-Prkdc^scid/NcrCrl mice (Charles River Laboratories) and NOD.Cg-Prkdc^scid Il2rg^tm1Wjl/SzJ mice (Jackson Laboratories). Tumor line was propagated by serial transplantation. Animals were ovariectomized prior to initiation of treatment.

Data set [2] relates to HCI-003 patient derived xenograft tumors. Kind of data set: HCI-003 patient derived xenograft efficacy. It is filed as in vivo, mice. The settings on record: tamoxifen 60 mg/kg/day orally; fulvestrant 200 mg/kg 3x/week; 38 days. The text has this: Like MCF7, HCI-003 tumors are ER+, E2 dependent and tamoxifen sensitive (Figure 4—figure supplement 1C). […] Lack of efficacy in this ER-negative model is consistent with the GDC-0810 mechanism of action being selectively mediated through ER.
The HCI-003 model was established at the University of Utah, Huntsman Cancer Center via direct implantation of both primary tumor material into immune compromised mice ([DeRose et al., 2011]). HCI-003 is wild-type at the ESR1 ligand binding domain. Exogenous estradiol is required for robust growth of this patient derived tumor line, and is supplied in the form of estradiol impregnated beeswax pellets. Tumor fragments obtained from the Huntsman Cancer Center were surgically implanted into the cleared mammary fat pad of 19 day old female NOD.CB17-Prkdc^scid/NcrCrl mice (Charles River Laboratories). The right mammary fat pad of recipient animals was exposed by a 1 cm incision on the ventral mid-line at the level of the fourth mammary. The blood vessels were cauterized and the fat pad blunt dissected from the abdominal wall and skin. Tumor fragments were excised from donor animals, chopped into fragments approximately 8 mm^3 (2 × 2 × 2 mm), implanted in the region of the cleared mammary fat pad, and the incision was closed with wound clips. Estradiol impregnated beeswax pellets were implanted subcutaneously into the interscapular space of recipient animals on the day of tumor implant. Recipient animals were ovariectomized 19 days after tumor fragment implant. One group of animals was designated as a control for estradiol independent tumor growth (Vehicle-E2) and the estradiol impregnated pellets were excised on the first day of dosing. All mice were housed and maintained according to the animal-use guidelines of the Institutional Animal Care and Use Committee (IACUC), conforming to California State legal and ethical practices.
(In xenograft studies the graft and the host belong to different species.)

In data set [3] the test system is TamR1 tumors. The data set is described as follows: Tamoxifen-resistant MCF7 (TamR1) xenograft efficacy. The settings on record: 0.18 mg 60 day E2 pellets; tamoxifen 120 mg/kg/day p.o.; fulvestrant 200 mg/kg 3x/week s.c.; GDC-0810 10, 30 or 100 mg/kg/day p.o.; 27 days. Type of data set: in vivo, mice. As for the experimental part:
We previously generated a tamoxifen-resistant xenograft model, TamR1, by chronically treating MCF7 tumor bearing mice with tamoxifen until a resistant tumor emerged ([Lai et al., 2015]). […] These experiments were conducted in mice with relatively high levels of circulating estradiol, with estradiol being delivered via 0.72 mg 60 day release E2 pellets that are reported by the manufacturer (Innovative Research) to deliver between 300 and 400 pg/ml estradiol. Under these conditions the high E2 reduces the steady state ERα protein levels, thus confounding the readout of ERα protein as a pharmacodynamic endpoint (Figure 5—figure supplement 1). […] These pellets are sufficient to support tumor growth but only modestly reduce ERα levels (Figure 5—figure supplement 1).
Figure 5. […] (A) Tamoxifen-resistant MCF7 tumors were implanted in animals supplemented with 60-day release 0.18 mg 17β-estradiol pellets. […] S.c. is sub-cutaneous dosing, and p.o. is per os (by mouth) oral gavage dosing. * Denotes significance (p<0.05) compared to Vehicle in 1-Way ANOVA and Dunnett's Multiple Comparison Test. Figure 5—figure supplement 1. Effects of estradiol pellet on ERα levels in MCF7-TamR1 xenograft tumors. TamR1 tumor fragments were implanted into Crl:NU-Foxn1^nu mice implanted with either 0.72 or 0.18 mg/60 day 17-β estradiol pellets. Once tumors were established pellets were removed from 1 group. 28 days after pellet removal ERα protein levels were determined for 4 tumors from each group. Data is presented as average compared to Vehicle (-E2). Error is standard deviation. * Denotes significance (p<0.05) compared to Vehicle (-E2) by T-test. [drawing 7] […] (A) ERα protein levels were determined by western blot analysis of tumors 8 hr following the final compound treatment on day 27. […] KI-67 expression, quantified from IHC analysis. […]
The tamoxifen-resistant derivative of the ER+ human tumor cell line, MCF7 (TamR1) was developed by Seragon Pharmaceuticals, Inc ([Lai et al., 2015]). […] The tumors which continued to grow under these conditions were serially passaged and evaluated for continued tamoxifen resistance. […]

Data set [4] relates to uterus of juvenile rats. Kind of data set: Juvenile rat uterus assays. Type of data set: in vivo, Sprague Dawley rats. The settings on record: fulvestrant 50 mg/kg. The text has this:
[…] Rats were euthanized 4 hr after the final dose. Uteri were then dissected, weighed and fixed for histological examination. A small portion of tissue was saved prior to fixation for mRNA isolation and gene expression analysis.
H&E stained sections from bilateral representative uterine horn cross-sections were examined from two animals treated with the compounds shown. Endometrial cell height was digitally measured from the basement membrane to the apical (luminal) surface (orange line), using a digitally scanned image at 20X magnification. Obliquely cut areas were avoided. Three digital measurements were taken from each section (n = 6).
Estrogen receptor was detected using the mouse monoclonal anti-ER (clone 1D5, Dako), incubated for 60 min at RT at a dilution of 0.5 µg/ml, and visualized after secondary rabbit anti-mouse antibody binding with Powervision DAB (Leica Powersystems). H-scores were estimated manually, incorporating both intensity and percentage of positive nuclei, using the following formula: (0 x% negative)+(1 x% weak)+(2 x% moderate)+(3 x% strong)

For the molecule `CC/C(=C(\c1ccccc1)c1ccc(OCCN(C)C)cc1)c1ccccc1` [Tamoxifen], the “Tumor growth response, WHIM20 PDX” value in data set [1] was “induced tumor stasis”. Further, in data set [2], the “Anti-tumor activity, HCI-003 PDX (Figure 4—figure supplement 1C)” value was “display anti-tumor activity”. Further, the “Tumor growth response, TamR1 xenograft, lower E2” value in data set [3] is “stimulated tumor growth”. In addition, in data set [4] (tamoxifen 60 mg/kg orally once a day for 3 days, GDC-0810 0.1 or 10 mg/kg, relative to vehicle control), the Uterine wet weight result is “increases uterine wet weight”. In addition, in data set [4] (tamoxifen 60 mg/kg, GDC-0810 0.1 and 10 mg/kg), the “Endometrial epithelial cell morphology (histology, endometrial cell height)” value is given as “induced a cuboidal to columnar morphological change”.
